Experimental data taken from EP0415598A1, “Cosmetic composition” (UNILEVER PLC, priority 1989, dated 1991).

System: hair growth
Experiment: Rat Hair Growth Test (topical application to clipped skin, cumulative hair weight)
Format: in vivo, male albino Wistar rats
Method: The effect of compounds on hair growth was assessed using male albino Wistar rats as an animal model. The rats were chosen from as few litters as possible and were each approximately 42 days of age at the start of the test. Each rat was housed individually to prevent licking.
In each comparison, 10 rats were used in each group and hair growth was assessed as follows:
A small patch of normal skin (4cm x 4cm) on the upper back of each rat was clipped at the start and 0.3 ml of a hair growth stimulant composition (or a control) applied topically twice daily and once on Saturdays and Sundays to each clipped area. The concentration of test compound in the composition was chosen from 0.01 to 20% by weight.
In any case, this concentration will lie within the range of from 0.01 to 20% by weight as stipulated above.
Hair was clipped from the area of the patch twice weekly, collected and weighed at each time point over a standard period of 3 months, and cumulative hair weight calculated. […] A positive response, i.e. an increase of at least 10% by weight of hair after 3 months treatment, compared with a control indicates the potential of the test compound to prevent hair loss and/or reverse baldness in human subjects.
In this example, the effect of topical application of N-acetyl glycine is shown. […]

CC(=O)NCC(=O)O [N-acetyl glycine]
increase in hair growth (10% (w/v) N-acetyl glycine vs control (distilled water, pH 4.2), after 58 days, statistically significant): 23%
Mean Cumulative Hair Weight (mg) ± sd, after 58 days (10% (w/v) solution in distilled water adjusted to pH 4.2 with potassium hydroxide, topical, 0.3 ml twice daily, 58 days, control 505.9 ± 103.1, p =0.02 vs control): 622.8 ± 101.11 mg
